Assay results taken from patent EP0350946A2 (priority 1988, dated 1990).
Read-outs that look alike come from different tables or passages of the source.

Experiments:
Phytophthora infestans = assay type: in vivo, tomato (var: Ponte Rosa); settings: sprayed the day after inoculation, observed after 5 days, percent disease control
[1] = system: Pseudoperonospora cubensis; experiment: Curative effect on downy mildew of cucumber; assay type: in vivo, cucumber (var: Sagamihanjiro); settings: sprayed the day after inoculation, observed after 8 days, percent disease control
Text: (§1) Typical test data indicating the excellent fungicidal activity of the amide compounds (I) are shown below. The assessment data are converted to percent disease control. 100 % means no infection; 0 % means that the plant are totally infected compared with the control plant.
A plastic pot was filled with sandy soil, and seeds of cucumber (var: Sagamihanjiro) were sowed therein, followed by cultivation in a greenhouse for 14 days. A spore suspension of Pseudoperonospora cubensis was inoculated by spreading over the seedlings of the test plants, which were then allowed to stand at 20°C overnight under a humid condition. The test compound formulated in a wettable powder according to Formulation Example 1 and diluted with water to a prescribed concentration was thoroughly sprayed over the test plants, which were further grown for 8 days under illumination and observed.

Plasmopara viticola = experiment: Curative effect on downy mildew of grapes; assay type: in vivo, grapes (var: Bailey-A); settings: sprayed the day after inoculation, observed after 8 days, percent disease control
Text: as §1
A plastic pot was filled with sandy soil, and seeds of grapes (var: Bailey-A) were sowed therein, followed by cultivation in a greenhouse for 50 days. A spore suspension of Plasmopara viticola was inoculated by spreading over the seedlings at the 6 to 7 leaf-stage of the test plants, which were then allowed to stand at 20°C overnight under a humid condition. The test compound formulated in a wettable powder according to Formulation Example 1 and diluted with water to a prescribed concentration was thoroughly sprayed over the test plants, which were further grown for 8 days under illumination and observed.

Row | Compound | Curative effect Tomato (Phytophthora infestans; 100 ppm) | Curative effect Tomato (Phytophthora infestans; 200 ppm) | Curative effect Cucumber ([1]; 100 ppm) | Curative effect Cucumber ([1]; 200 ppm) | Curative effect Grape (Plasmopara viticola; 100 ppm) | Curative effect Grape (Plasmopara viticola; 200 ppm)
1 | CCOC(C#N)NC(=O)c1sc(C)nc1C (centres unmarked) [Compound 2, 2-ethoxy-2-(2,4-dimethylthiazole-5-carboxamino)acetonitrile] | 95% | 100% | 95% | 100% | 100% | 100%
2 | C#CCCOC(C#N)NC(=O)c1sc(C)nc1C (centres unmarked) [Compound 4, 2-(butynyl-3-oxy)-2-(2,4-dimethylthiazole-5-carboxamino)acetonitrile] | 90% | 100% | – | 100% | – | 100%
3 | CCOC(C#N)NC(=O)c1sc(C)nc1CC (centres unmarked) [Compound 6, 2-ethoxy-2-(4-ethyl-2-methylthiazole-5-carboxamino)acetonitrile] | 100% | 100% | – | 100% | 100% | 100%
4 | CCCOC(C#N)NC(=O)c1sc(C)nc1CC (centres unmarked) [Compound 7, 2-n-propoxy-2-(4-ethyl-2-methylthiazole-5-carboxamino)acetonitrile] | 100% | 100% | 90% | 100% | 90% | 100%
5 | C#CCCOC(C#N)NC(=O)c1sc(C)nc1CC (centres unmarked) [Compound 10, 2-(butynyl-3-oxy)-2-(4-ethyl-2-methylthiazole-5-carboxamino)acetonitrile] | 95% | 100% | 95% | 100% | 90% | 100%
6 | CCc1nc(C)sc1C(=O)NC(C#N)OCCC#N (centres unmarked) [Compound 11, 2-(2-cyanoethoxy)-2-(4-ethyl-2-methylthiazole-5-carboxamino)acetonitrile] | 100% | 100% | 90% | 100% | 100% | 100%
7 | CCSC(C#N)NC(=O)c1sc(C)nc1CC (centres unmarked) [Compound 12, 2-ethylthio-2-(4-ethyl-2-methylthiazole-5-carboxamino)acetonitrile] | 95% | 100% | 90% | 100% | 90% | 100%
8 | CCCc1nc(C)sc1C(=O)NC(C#N)OCC (centres unmarked) [Compound 13, 2-ethoxy-2-(4-n-propyl-2-methylthiazole-5-carboxamino)acetonitrile] | 90% | 95% | 90% | 95% | – | 90%
9 | CCOC(C#N)NC(=O)c1sc(C)nc1C(C)C (centres unmarked) [Compound 14, 2-ethoxy-2-(4-isopropyl-2-methylthiazole-5-carboxamino)acetonitrile] | 100% | 100% | 100% | 100% | 90% | 100%
